The record followed here is PubChem BioAssay (NCI).

Holding throughout (assay): DTP human tumour cell line panel, 48 h
Experiment [1] has as its system OVCAR-4 ovarian.
Experiment [2] has as its system CAKI-1 renal.
Experiment [3] has as its system SK-OV-3 ovarian.
Experiment [4] deals with MCF7 breast.
The subject of experiment [5] is HOP-62 NSCLC.
In experiment [6] the test system is HCC-2998 colon.
Experiment [7] concerns HCT-15 colon.
Experiment [8] has as its system SNB-75 CNS.
For experiment [9], the system named is SK-MEL-28 melanoma.
The subject of experiment [10] is HS 578T breast.

In general, TGI refers to the concentration at which net growth stops. High values mean lower sensitivity of the cells, low ones greater sensitivity of the cells. By GI50 is commonly meant the concentration at which growth is held to half of that of the control.

Values joined by “and” are separate entries in the source; they are usually repeats but may differ in a detail not shown here. Equal entries are not always repeated.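 How tested: cells in 96-well plates exposed to compound for 48 hours at five concentrations. At the GI50, growth is halved. At the TGI there is no net growth.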

Regarding `COc1ccc2c(c1)NC1(CCN(CCCC(=O)c3ccc(F)cc3)CC1)N=N2`, the TGI in experiment [1] is over 100 µM; in [2], 90.6 µM; in experiment [3], over 100 µM; in experiment [4] it was 40.5 µM; in experiment [5] it was 60.3 µM; in experiment [6], 28.2 µM. Also, the TGI in experiment [7] is 52.4 µM; in [8], 39.8 µM; in experiment [9], 37 µM.
As for `O=C(O)c1c2c(cc3c1CC1(Cc4cc5c(cc4C1=O)CCC5)C3)CCC2` (stereo not drawn), the concentration for total growth inhibition (TGI) in [1], in experiment [3], in experiment [4], in [5], in [6] and in experiment [7] was over 100 µM throughout. Further, the concentration for total growth inhibition (TGI) was over 100 µM in experiment [8], 82.5 µM in experiment [9] and over 100 µM in [10].
Take `CCOC1NC(=O)Oc2cc3ccccc3cc21` (stereo not drawn): the TGI in experiment [1], in experiment [3], in [4], in experiment [5], in experiment [6] and in experiment [7] was over 100 µM each time. Besides, the TGI in experiment [8], in [9] and in [10] was over 100 µM throughout.
For the compound `COC(=O)CCNc1c2ccccc2nc2cccc([N+](=O)[O-])c12`, the GI50 in [1] was 4.54 nM; in experiment [3] it was 40.5 nM; in [5], 1.5 nM; in experiment [6], 1040 nM; in [8], 18.5 nM; in experiment [9], 2.9 nM. Also, the TGI is 0.0251 µM in [1]; 0.405 µM and 0.18 µM in [3]; 0.277 µM in [4]; 0.00667 µM in experiment [5]; 2.33 µM in experiment [6]; 0.0722 µM in [8]. Also, the TGI in experiment [9] was 0.0112 µM and 0.0918 µM; in experiment [10], 0.0128 µM and 0.0651 µM.
As for `COC(=O)C(Cc1c[nH]c2ccccc12)NP(=O)(O)OCC1OC(n2cc(Br)c(=O)[nH]c2=O)CC1O` (stereo not drawn), the TGI in experiment [1], in experiment [3], in experiment [4], in experiment [5], in [6] and in experiment [7] was over 100 µM in each case. The TGI in experiment [8], in [9] and in experiment [10] was over 100 µM each time.
Take `O=C(O)/C(=C\c1ccc(O)cc1)c1cccc2ccccc12`: the TGI in [1], in [2], in experiment [5], in experiment [6], in experiment [7] and in experiment [8] was over 100 µM throughout. Besides, the TGI in [9] and in [10] was over 100 µM each time.
On to `CCCCCCCCCCCCCC[n+]1ccc(C(N)=O)cc1`, for which the GI50 was 3260 nM in [1]; 3.04 µM in experiment [2]; 2330 nM in experiment [3]; 1510 nM in [5]; 7.19 µM in [7]; 1700 nM in [8]. The values for the GI50 in experiment [9] and in [10] were 2830 nM and 2010 nM, respectively. Further, the TGI was determined as 18.2 µM in experiment [1]; 15 µM in [2]; 10.9 µM in experiment [3]; 3.45 µM in experiment [5]; 49.6 µM in [7]; 4.17 µM in [8]. The TGI in experiment [9] was found to be 7.49 µM; in [10] it was 7.05 µM.
Consider `COc1cccc2cc(C(=O)Nc3ccccc3)c(=N)oc12`, for which the TGI in [1], in experiment [2], in [3], in experiment [4], in experiment [5] and in [7] was over 100 µM throughout. For the same compound, the results for the TGI in [8], in [9] and in [10] were over 87.9 µM, over 100 µM and over 84.7 µM, respectively.
Take `CCCOP(=O)(OCCC)OC(C(F)(F)F)C(F)(F)F`: the TGI in experiment [3], in [4], in experiment [5], in experiment [6], in experiment [7] and in experiment [8] was over 100 µM each time. Also, the TGI in experiment [9] and in [10] was over 100 µM throughout.
For the compound `CCN(CC)CC1CN=C(N)O1` (stereo not drawn), the TGI in experiment [1], in experiment [2], in experiment [4], in [5], in experiment [6] and in [7] was over 100 µM throughout. The TGI in experiment [8] and in experiment [9] was over 100 µM each time.
On to `COC(=O)C1=C(O)CCCC(C2CCCCC(=O)C2C(=O)OC)=C1` (stereo not drawn), for which the TGI is over 100 µM in [1]; over 100 µM in experiment [2]; over 100 µM in [3]; 70.4 µM in [4]; 91.6 µM in [6]; over 100 µM in [7]. For the same compound, the TGI in experiment [8] and in experiment [9] was over 100 µM each time.
On to `CC1SC2(CCCCC2)N(NC(=O)CSc2nc3ccc(Cl)cc3c(=O)n2-c2ccccc2)C1=O` (stereo not drawn), for which the TGI in [1] was over 100 µM; in experiment [2], over 100 µM; in experiment [3] it was over 100 µM; in [4], 32.2 µM; in [5] it was 34.3 µM; in experiment [6] it was 41.8 µM. The TGI in experiment [7] was 45.2 µM; in [8] it was 50.4 µM; in experiment [9], 88.4 µM.
Regarding `O=C(c1cccnc1)N1N=C(c2ccccc2)CC1(O)c1cc(F)c(Cl)cc1Cl` (stereo not drawn), the TGI is over 100 µM in experiment [1]; over 100 µM in experiment [2]; over 100 µM in [3]; 39.1 µM in experiment [5]; 93.4 µM in experiment [7]; 52.9 µM in experiment [8]. Further, the TGI in experiment [9] turned out to be 65.5 µM; in experiment [10], 79.5 µM.
Turning to `O=P(Nc1ccccc1)(Oc1ccccc1)N(CCCl)CCCl` (stereo not drawn), the TGI in [1] was over 100 µM; in experiment [2], over 100 µM; in experiment [3], 44.2 µM; in experiment [5], over 100 µM; in [6], over 100 µM; in [7], over 100 µM. Further, the concentration for total growth inhibition (TGI) in experiment [8] and in [9] was over 100 µM in each case.
Take `CC(=O)C(C(C)=O)[C@@H]1OC(C)(C)O[C@@H]1[C@H]1COC(C)(C)O1`: the TGI in experiment [1], in experiment [2], in [4], in experiment [5], in [6] and in [7] was over 100 µM in each case. Further, the TGI in [9] and in experiment [10] was over 100 µM throughout.
For the compound `N#Cc1cc(Sc2ccc(N)c(C#N)c2)ccc1N`, the TGI was 98.8 µM in [1]; over 100 µM in [3]; over 100 µM in experiment [4]; over 100 µM in [5]; 38.9 µM in experiment [7]; over 100 µM in experiment [9]. This compound also came in with a TGI in experiment [10] of 39.3 µM.
On to `Cn1c2ccccc2c2cc(N3CCCC3)c3c(c21)C(=O)N(c1ccccc1)C3=O`, for which the TGI in [1], in [3], in experiment [4], in experiment [5], in [6] and in [7] was over 100 µM throughout. For the same compound, the TGI in [8], in experiment [9] and in [10] was over 100 µM throughout.
Consider `O=C(CN1CCCCC1)Nc1ccc2c(c1)C1Oc3ccccc3CC1CO2` (stereo not drawn), for which the TGI was over 100 µM in [2]; 81.9 µM in [3]; 44.1 µM in [4]; 34.1 µM in [5]; 34.4 µM in [6]; 35.1 µM in experiment [7].
On to `C/C=C(\C)C(=O)O[C@@H]1CC(C)(C)CC2C3=CCC4[C@]56CC[C@](O)(OC5)C(C)(C)C6CC[C@@]4(C)C3(C)CC[C@]21C(=O)O` (stereo partly drawn), for which the TGI in experiment [1], in [2], in [3], in experiment [4], in experiment [5] and in [6] was over 100 µM in each case. Moreover, the TGI in experiment [7], in [9] and in experiment [10] was over 100 µM throughout.
In the case of `Cc1cc(Nc2ccc(NS(C)(=O)=O)cc2)c2c(ccc3nccc32)[nH]1`, the TGI in experiment [1] is 30.6 µM; in experiment [2] it was 96.6 µM; in [4] it was 36.2 µM; in experiment [5], 44.5 µM; in experiment [7], over 100 µM; in experiment [9] it was 33.4 µM. The same compound had a TGI in experiment [10] of over 100 µM.
In the case of `CN(C)CCNC(=O)c1cccc2nc3c(C(=O)NCCN(C)C)cccc3nc12`, the TGI is 2.24 µM in [1]; over 100 µM in experiment [2]; 5.12 µM in [5]; 4.12 µM in [6]; 16.5 µM in experiment [7]; 8.12 µM in experiment [8]. For the same compound, the TGI was determined as 4.64 µM in [9] and 7.73 µM in experiment [10].
As to `COC(=O)c1c2c(cc3c1CC1(Cc4cc5c(c(C(C)=O)c4C1)CCCC5)C3)CCCC2` (stereo not drawn), the TGI in experiment [1], in [3], in [4], in [5], in experiment [6] and in experiment [7] was over 100 µM in each case. Moreover, in experiment [10], the TGI was over 100 µM.
Consider `CC(=O)O[C@H]1C[C@@H](OC(C)=O)[C@@](C)(O)[C@@H]2[C@@H](OC(C)=O)[C@@]3(O)[C@H](/C=C(/CO)[C@H]4O[C@H]4[C@@H](OC(C)=O)[C@@]12C)OC(=O)[C@@H]3C`, for which the TGI in experiment [1], in [2], in experiment [3], in experiment [5], in experiment [6] and in experiment [7] was over 25 µM throughout. In addition, the values for the TGI in experiment [8], in experiment [9] and in experiment [10] were 17.5 µM, over 25 µM and over 25 µM, respectively.
Consider `CCOC(=O)CCN1C(=O)C(=O)N(c2ccc(OC)cc2)C1=S`, for which the TGI in [1], in experiment [2], in [3], in experiment [5], in experiment [6] and in [7] was over 100 µM in each case. The TGI in [8], in [9] and in experiment [10] was over 100 µM each time.
As for `C#C[C@@]1(O)CCCC2=CC3(CC[C@]21C)SCCS3`, the TGI in [1], in experiment [3], in experiment [4], in [5], in experiment [6] and in experiment [7] was over 100 µM throughout. Besides, the TGI in experiment [9] and in experiment [10] was over 100 µM throughout.
In the case of `CC1(C)C2CCC1C(=O)[C@@]1(C=CC(=O)CC1)C2` (stereo partly drawn), the TGI in experiment [1], in [3], in experiment [4], in [5], in [6] and in experiment [7] was over 100 µM each time. For the same compound, the TGI in [8], in experiment [9] and in experiment [10] was over 100 µM in each case.
`C=CC(C)C1(CCCOCc2ccccc2)C(=S)N2CCC3(CC24CCCC14)OCCO3` (stereo not drawn): the TGI was over 100 µM in [1]; over 100 µM in experiment [2]; over 100 µM in experiment [3]; over 100 µM in experiment [6]; over 100 µM in experiment [7]; 5.82 µM in experiment [8]. For the same compound, the TGI in experiment [9] was over 100 µM.
As to `COC(=O)C1CCC(=O)N1C(c1cc(OC)c(OC)c(OC)c1)c1cccc2ccccc12` (stereo not drawn), the TGI in experiment [3], in experiment [4], in experiment [5], in experiment [7], in experiment [8] and in experiment [9] was over 100 µM in each case. In experiment [10], this compound showed a TGI of over 100 µM.
Turning to `CNC(=O)SCC(NC(=O)CCC(N)C(=O)O)C(=O)NCC(=O)O` (stereo not drawn), the TGI in experiment [1], in experiment [2], in experiment [3], in [4], in experiment [5] and in [6] was over 100 µM each time. For the same compound, the TGI in experiment [7], in [8] and in experiment [9] was over 100 µM each time.
For `O=C(c1cccs1)N1CCCN(C(=O)c2cccs2)C1=S`, the TGI in [2] was over 100 µM; in experiment [3], over 100 µM; in experiment [4] it was over 100 µM; in [5] it was 66.2 µM; in [7], over 100 µM; in experiment [9], over 100 µM. The same compound gave a concentration for total growth inhibition (TGI) in [10] of over 100 µM.
